Target: T1, human glutathione transferase A1-1 (hGSTA1-1) (Homo sapiens, UniProt P08263)
T1 construct: gene GSTA1
T1 sequence (P08263 2-222): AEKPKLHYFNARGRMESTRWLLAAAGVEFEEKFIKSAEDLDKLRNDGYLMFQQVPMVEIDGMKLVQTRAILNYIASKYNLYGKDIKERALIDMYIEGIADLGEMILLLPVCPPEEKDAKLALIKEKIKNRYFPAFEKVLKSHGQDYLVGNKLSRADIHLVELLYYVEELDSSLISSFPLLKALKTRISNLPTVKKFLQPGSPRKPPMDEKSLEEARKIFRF
Assay: CDNB/GSH conjugation assay with purified recombinant hGSTA1-1; IC50 and steady-state inhibition kinetics (Ki […] vs GSH, […] vs CDNB)
Assay type: biochemical
Excerpt: Fisetin appears to be a strong inhibitor for hGSTA1-1

- IC50: 1.2 ± 0.1 µM
SMILES: O=c1c(O)c(-c2ccc(O)c(O)c2)oc2cc(O)ccc12 [fisetin]

— paper PMC8004991, “The Interaction of the Flavonoid Fisetin with Human Glutathione Transferase A1-1” (Metabolites, 2021)
